Patent US10894784B2, “Heteroarylbenzimidazole compounds” (BAYER PHARMA AKTIENGESELLSCHAFT, priority 2015, dated 2021)

target: TBK1 (Homo sapiens (Human), UniProt Q9UHD2); experiment: TBK1 low ATP kinase assay (in vitro assay 1); assay type: biochemical; conditions: in vitro assay 1, read-out: TBK1 low ATP kinase assay IC50
Sequence (Q9UHD2 whole entry): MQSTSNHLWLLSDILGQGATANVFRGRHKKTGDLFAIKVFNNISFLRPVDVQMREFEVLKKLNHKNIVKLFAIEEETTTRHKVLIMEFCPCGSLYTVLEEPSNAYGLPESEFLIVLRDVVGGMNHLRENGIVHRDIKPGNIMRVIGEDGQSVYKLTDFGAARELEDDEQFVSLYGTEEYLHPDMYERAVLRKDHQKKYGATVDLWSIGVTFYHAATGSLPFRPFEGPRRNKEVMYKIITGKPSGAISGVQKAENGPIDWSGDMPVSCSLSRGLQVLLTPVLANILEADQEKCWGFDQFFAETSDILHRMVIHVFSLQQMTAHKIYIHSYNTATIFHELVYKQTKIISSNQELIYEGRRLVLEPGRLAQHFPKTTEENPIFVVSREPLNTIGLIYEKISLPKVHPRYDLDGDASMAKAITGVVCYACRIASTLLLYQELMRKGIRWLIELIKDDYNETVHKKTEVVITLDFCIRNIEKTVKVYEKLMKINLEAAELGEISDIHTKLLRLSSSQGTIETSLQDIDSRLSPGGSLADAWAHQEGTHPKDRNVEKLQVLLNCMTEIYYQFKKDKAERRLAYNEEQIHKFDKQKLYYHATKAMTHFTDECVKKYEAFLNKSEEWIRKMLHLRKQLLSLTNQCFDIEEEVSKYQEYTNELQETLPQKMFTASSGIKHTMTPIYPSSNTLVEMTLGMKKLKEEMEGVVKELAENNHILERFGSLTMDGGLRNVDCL

First: O=C(CC(F)(F)F)N1CCN(Cc2ccnc(Nc3nc4ccc(-c5cc(OCC6CCC6)ncn5)cc4[nH]3)c2)CC1 [Example 159.02, 1-(4-{[2-({6-[6-(cyclobutylmethoxy)pyrimidin-4-yl]-1H-benzimidazol-2-yl}amino)pyridin-4-yl]methyl}piperazin-1-yl)-3,3,3-trifluoropropan-1-one]
Second: CCOc1cc(-c2ccc3nc(Nc4cc(CN5CCN(C(=O)CC(F)(F)F)CC5)ccn4)[nH]c3c2)ncn1 [Example 161.02, 1-{4-[(2-{[6-(6-ethoxypyrimidin-4-yl)-1H-benzimidazol-2-yl]amino}pyridin-4-yl)methyl]piperazin-1-yl}-3,3,3-trifluoropropan-1-one]
The IC50 of the first is 1.9-fold higher: 15 nM for the first, 7.7 nM for the second. The second is the more potent here.

First: CC(C)Oc1cc(-c2ccc3nc(Nc4cc(CN5CCN(C(=O)OC(C)(C)C)CC5)ccn4)[nH]c3c2)ncn1 [Example 160.01, tert-butyl 4-{[2-({6-[6-(propan-2-yloxy)pyrimidin-4-yl]-1H-benzimidazol-2-yl}amino)pyridin-4-yl]methyl}piperazine-1-carboxylate]
Second: CC(C)Oc1cc(-c2ccc3nc(Nc4cc(CN5CCN(C(=O)C6CC6)CC5)ccn4)[nH]c3c2)ncn1 [Example 160.03, cyclopropyl(4-{[2-({6-[6-(propan-2-yloxy)pyrimidin-4-yl]-1H-benzimidazol-2-yl}amino)pyridin-4-yl]methyl}piperazin-1-yl)methanone]
The IC50 of the first is 7.5-fold higher: 64 nM for the first, 8.5 nM for the second.

`CC(C)Oc1cc(-c2ccc3nc(Nc4cc(CN5CCN(C(=O)CC(F)(F)F)CC5)ccn4)[nH]c3c2)ncn1` [Example 160.02, 3,3,3-trifluoro-1-(4-{[2-({6-[6-(propan-2-yloxy)pyrimidin-4-yl]-1H-benzimidazol-2-yl}amino)pyridin-4-yl]methyl}piperazin-1-yl)propan-1-one] and `COc1cc(-c2ccc3nc(Nc4cc(CN5CCN(C(=O)CC(F)(F)F)CC5)ccn4)[nH]c3c2)ncn1` [Example 163.02, 3,3,3-trifluoro-1-{4-[(2-{[6-(6-methoxypyrimidin-4-yl)-1H-benzimidazol-2-yl]amino}pyridin-4-yl)methyl]piperazin-1-yl}propan-1-one] are within 1.5-fold of each other in IC50: 13 nM for the first, 19 nM for the second.

Compared with `CCOc1cc(-c2ccc3nc(Nc4cc(CN5CCN(C(=O)C6CC6)CC5)ccn4)[nH]c3c2)ncn1` [Example 161.03, cyclopropyl{4-[(2-{[6-(6-ethoxypyrimidin-4-yl)-1H-benzimidazol-2-yl]amino}pyridin-4-yl)methyl]piperazin-1-yl}methanone], `COc1cc(-c2ccc3nc(Nc4cc(CN5CCN(C(=O)C6CC6)CC5)ccn4)[nH]c3c2)ncn1` [Example 163.03, cyclopropyl{4-[(2-{[6-(6-methoxypyrimidin-4-yl)-1H-benzimidazol-2-yl]amino}pyridin-4-yl)methyl]piperazin-1-yl}methanone] is 2.7-fold higher in IC50: 6.7 nM for the first, 18 nM for the second. The first is the more potent here.

Going from `CN(C)c1ncnc(-c2ccc3nc(Nc4cc(CN5CCN(C(=O)CC(F)(F)F)CC5)ccn4)[nH]c3c2)c1F` [Example 162.02, 1-(4-{[2-({6-[6-(dimethylamino)-5-fluoropyrimidin-4-yl]-1H-benzimidazol-2-yl}amino)pyridin-4-yl]methyl}piperazin-1-yl)-3,3,3-trifluoropropan-1-one] to `CN(C)c1ncnc(-c2ccc3nc(Nc4cc(CN5CCN(C(=O)CC(F)(F)F)CC5)ccn4)[nH]c3c2)c1Cl` [Example 179.02, 1-(4-{[2-({6-[5-chloro-6-(dimethylamino)pyrimidin-4-yl]-1H-benzimidazol-2-yl}amino)pyridin-4-yl]methyl}piperazin-1-yl)-3,3,3-trifluoropropan-1-one], the IC50 rises from 20 nM to 1140 nM (57-fold). The first is the more potent here.

Compared with `CCOc1ncnc(-c2ccc3nc(Nc4cc(CN5CCN(C(=O)OC(C)(C)C)CC5)ccn4)[nH]c3c2)c1OC` [Example 167.01, tert-butyl 4-[(2-{[6-(6-ethoxy-5-methoxypyrimidin-4-yl)-1H-benzimidazol-2-yl]amino}pyridin-4-yl)methyl]piperazine-1-carboxylate], `CCOc1ncnc(-c2ccc3nc(Nc4cc(CN5CCN(C(=O)C6CC6)CC5)ccn4)[nH]c3c2)c1OC` [Example 167.03, cyclopropyl{4-[(2-{[6-(6-ethoxy-5-methoxypyrimidin-4-yl)-1H-benzimidazol-2-yl]amino}pyridin-4-yl)methyl]piperazin-1-yl}methanone] is 5.4-fold lower in IC50: 222 nM for the first, 41.3 nM for the second. The second is the more potent here.

`CCOc1ncnc(-c2ccc3nc(Nc4cc(CN5CCN(C(=O)CC(F)(F)F)CC5)ccn4)[nH]c3c2)c1OC` [Example 167.02, 1-{4-[(2-{[6-(6-ethoxy-5-methoxypyrimidin-4-yl)-1H-benzimidazol-2-yl]amino}pyridin-4-yl)methyl]piperazin-1-yl}-3,3,3-trifluoropropan-1-one] and `CCOc1ncnc(-c2ccc3nc(Nc4cc(CN5CCN(C(=O)C6(C(F)(F)F)CC6)CC5)ccn4)[nH]c3c2)c1OC` [Example 167.04] are within 1.5-fold of each other in IC50: 35 nM for the first, 23.7 nM for the second.

Compared with `O=C(CC(F)(F)F)N1CCN(Cc2ccnc(Nc3nc4ccc(-c5ncnc6ccoc56)cc4[nH]3)c2)CC1` [Example 168.02, 3,3,3-trifluoro-1-{4-[(2-{[6-(furo[3,2-d]pyrimidin-4-yl)-1H-benzimidazol-2-yl]amino}pyridin-4-yl)methyl]piperazin-1-yl}propan-1-one], `O=C(C1CC1)N1CCN(Cc2ccnc(Nc3nc4ccc(-c5ncnc6ccoc56)cc4[nH]3)c2)CC1` [Example 168.03, cyclopropyl{4-[(2-{[6-(furo[3,2-d]pyrimidin-4-yl)-1H-benzimidazol-2-yl]amino}pyridin-4-yl)methyl]piperazin-1-yl}methanone] is 1.7-fold higher in IC50: 4.18 nM for the first, 7.12 nM for the second.

First: O=C(CC(F)(F)F)N1CCN(Cc2ccnc(Nc3nc4ccc(-c5ccsc5Cl)cc4[nH]3)c2)CC1 [Example 175.02, 1-{4-[(2-{[6-(2-chlorothiophen-3-yl)-1H-benzimidazol-2-yl]amino}pyridin-4-yl)methyl]piperazin-1-yl}-3,3,3-trifluoropropan-1-one]
Second: O=C(C1CC1)N1CCN(Cc2ccnc(Nc3nc4ccc(-c5ccsc5Cl)cc4[nH]3)c2)CC1 [Example 175.03, {4-[(2-{[6-(2-chlorothiophen-3-yl)-1H-benzimidazol-2-yl]amino}pyridin-4-yl)methyl]piperazin-1-yl}(cyclopropyl)methanone]
The IC50 of the first is 1.6-fold higher: 353 nM for the first, 223 nM for the second. The second is the more potent here.

First: COc1cc(-c2ccc3nc(Nc4cc(CN5CCN(C(=O)CC(F)(F)F)CC5)ccn4)[nH]c3c2)nc(C)n1 [Example 176.02, 3,3,3-trifluoro-1-{4-[(2-{[6-(6-methoxy-2-methylpyrimidin-4-yl)-1H-benzimidazol-2-yl]amino}pyridin-4-yl)methyl]piperazin-1-yl}propan-1-one]
Second: Cc1cc(-c2ccc3nc(Nc4cc(CN5CCN(C(=O)CC(F)(F)F)CC5)ccn4)[nH]c3c2)nc(N(C)C)n1 [Example 178.02, 1-(4-{[2-({6-[2-(dimethylamino)-6-methylpyrimidin-4-yl]-1H-benzimidazol-2-yl}amino)pyridin-4-yl]methyl}piperazin-1-yl)-3,3,3-trifluoropropan-1-one]
The IC50 of the first is 8.9-fold higher: 3580 nM for the first, 402 nM for the second.

Compared with `CC(C)(C)OC(=O)N1CCN(Cc2ccnc(Nc3nc4ccc(-c5ccnc(N6CCCC6)n5)cc4[nH]3)c2)CC1` [Example 177.01, tert-butyl 4-{[2-({6-[2-(pyrrolidin-1-yl)pyrimidin-4-yl]-1H-benzimidazol-2-yl}amino)pyridin-4-yl]methyl}piperazine-1-carboxylate], `O=C(CC(F)(F)F)N1CCN(Cc2ccnc(Nc3nc4ccc(-c5ccnc(N6CCCC6)n5)cc4[nH]3)c2)CC1` [Example 177.02, 3,3,3-trifluoro-1-(4-{[2-({6-[2-(pyrrolidin-1-yl)pyrimidin-4-yl]-1H-benzimidazol-2-yl}amino)pyridin-4-yl]methyl}piperazin-1-yl)propan-1-one] is 3-fold lower in IC50: 227 nM for the first, 74.5 nM for the second. The second is the more potent here.

`Cc1cc(-c2ccc3nc(Nc4cc(CN5CCN(C(=O)OC(C)(C)C)CC5)ccn4)[nH]c3c2)nc(N(C)C)n1` [Example 178.01, tert-butyl 4-{[2-({6-[2-(dimethylamino)-6-methylpyrimidin-4-yl]-1H-benzimidazol-2-yl}amino)pyridin-4-yl]methyl}piperazine-1-carboxylate] and `CN(C)c1ccnc(-c2ccc3nc(Nc4cc(CN5CCN(C(=O)OC(C)(C)C)CC5)ccn4)[nH]c3c2)n1` [Example 181.01, tert-butyl 4-{[2-({6-[4-(dimethylamino)pyrimidin-2-yl]-1H-benzimidazol-2-yl}amino)pyridin-4-yl]methyl}piperazine-1-carboxylate] are within 1.5-fold of each other in IC50: 890 nM for the first, 791 nM for the second.

First: CN(C)c1ncnc(-c2ccc3nc(Nc4cc(CN5CCN(C(=O)OC(C)(C)C)CC5)ccn4)[nH]c3c2)c1Cl [Example 179.01, tert-butyl 4-{[2-({6-[5-chloro-6-(dimethylamino)pyrimidin-4-yl]-1H-benzimidazol-2-yl}amino)pyridin-4-yl]methyl}piperazine-1-carboxylate]
Second: CN(C)c1ncnc(-c2ccc3nc(Nc4cc(CN5CCN(C(=O)C6CC6)CC5)ccn4)[nH]c3c2)c1Cl [Example 179.03, (4-{[2-({6-[5-chloro-6-(dimethylamino)pyrimidin-4-yl]-1H-benzimidazol-2-yl}amino)pyridin-4-yl]methyl}piperazin-1-yl)(cyclopropyl)methanone]
The IC50 of the first is 2.4-fold higher: 3010 nM for the first, 1260 nM for the second. The second is the more potent here.

First: CC(C)(C)OC(=O)N1CCN(Cc2ccnc(Nc3nc4ccc(-c5ncccn5)cc4[nH]3)c2)CC1 [Example 180.01, tert-butyl 4-[(2-{[6-(pyrimidin-2-yl)-1H-benzimidazol-2-yl]amino}pyridin-4-yl)methyl]piperazine-1-carboxylate]
Second: O=C(C1CC1)N1CCN(Cc2ccnc(Nc3nc4ccc(-c5ncccn5)cc4[nH]3)c2)CC1 [Example 180.03, cyclopropyl{4-[(2-{[6-(pyrimidin-2-yl)-1H-benzimidazol-2-yl]amino}pyridin-4-yl)methyl]piperazin-1-yl}methanone]
The IC50 of the first is 1.6-fold higher: 576 nM for the first, 364 nM for the second.

Compound `O=C(CC(F)(F)F)N1CCN(Cc2ccnc(Nc3nc4ccc(-c5ncccn5)cc4[nH]3)c2)CC1` [Example 180.02, 3,3,3-trifluoro-1-{4-[(2-{[6-(pyrimidin-2-yl)-1H-benzimidazol-2-yl]amino}pyridin-4-yl)methyl]piperazin-1-yl}propan-1-one] has an IC50 of 556 nM.
